From patent US20240190849A1, “AMINOPYRIMIDINE COMPOUNDS AND METHODS OF THEIR USE” (TYRA BIOSCIENCES, INC., priority 2021, published 2024)

Key:
Settings in all cases: FGFR binding data
FGFR3 (V555M) = molecular target: T1, FGFR3 (V555M) (Homo sapiens, UniProt P22607, V555M); assay: Kinase binding assay (kinase-tagged T7 phage, affinity beads, qPCR readout), FGFR3 (V555M)
T1 construct: made in house; host or cells: E. coli derived from BL21, infected with T7 phage
Procedure: (§1) Kinase-tagged T7 phage strains were prepared in an E. coli host derived from the BL21 strain. E. coli were grown to log-phase and infected with T7 phage and incubated with shaking at 32° C. until lysis. The lysates were centrifuged and filtered to remove cell debris. Streptavidin-coated magnetic beads were treated with biotinylated small molecule ligands for 30 minutes at room temperature to generate affinity resins for kinase assays. The liganded beads were blocked with excess biotin and washed with blocking buffer SeaBlock (Pierce), 1% BSA, 0.05% Tween 20, 1 mM DTT to remove unbound ligand and to reduce non-specific binding. Binding reactions were assembled by combining kinases, liganded affinity beads, and test compounds in 1× binding buffer (20% SeaBlock, 0.17×PBS, 0.05% Tween 20, 6 mM DTT).
(§2) Test compounds were prepared as 111× stocks in 100% DMSO. Kds were determined using an 11-point 3-fold compound dilution series with three DMSO control points. All compounds for Kd measurements are distributed by acoustic transfer (non-contact dispensing) in 100% DMSO. The compounds were then diluted directly into the assays such that the final concentration of DMSO was 0.9%. All reactions performed in polypropylene 384-well plate. Each was a final volume of 0.02 ml. The assay plates were incubated at room temperature with shaking for 1 hour and the affinity beads were washed with wash buffer (1×PBS, 0.05% Tween 20). The beads were then re-suspended in elution buffer (1×PBS, 0.05% Tween 20, 0.5 μM non-biotinylated affinity ligand) and incubated at room temperature with shaking for 30 minutes. The kinase concentration in the eluates was measured by qPCR.
(§3) Binding constants were calculated with a standard dose-response curve using the Hill equation: […]
(§4) The Hill Slope was set to −1. Curves were fitted using a non-linear least square fit with the Levenberg-Marquardt algorithm.

FGFR2 = molecular target: T2, FGFR2 (Homo sapiens, UniProt P21802); assay: Kinase binding assay (kinase-tagged T7 phage, affinity beads, qPCR readout), FGFR2
T2 construct: made in house; host or cells: E. coli derived from BL21, infected with T7 phage
T2 sequence (P21802 22-821): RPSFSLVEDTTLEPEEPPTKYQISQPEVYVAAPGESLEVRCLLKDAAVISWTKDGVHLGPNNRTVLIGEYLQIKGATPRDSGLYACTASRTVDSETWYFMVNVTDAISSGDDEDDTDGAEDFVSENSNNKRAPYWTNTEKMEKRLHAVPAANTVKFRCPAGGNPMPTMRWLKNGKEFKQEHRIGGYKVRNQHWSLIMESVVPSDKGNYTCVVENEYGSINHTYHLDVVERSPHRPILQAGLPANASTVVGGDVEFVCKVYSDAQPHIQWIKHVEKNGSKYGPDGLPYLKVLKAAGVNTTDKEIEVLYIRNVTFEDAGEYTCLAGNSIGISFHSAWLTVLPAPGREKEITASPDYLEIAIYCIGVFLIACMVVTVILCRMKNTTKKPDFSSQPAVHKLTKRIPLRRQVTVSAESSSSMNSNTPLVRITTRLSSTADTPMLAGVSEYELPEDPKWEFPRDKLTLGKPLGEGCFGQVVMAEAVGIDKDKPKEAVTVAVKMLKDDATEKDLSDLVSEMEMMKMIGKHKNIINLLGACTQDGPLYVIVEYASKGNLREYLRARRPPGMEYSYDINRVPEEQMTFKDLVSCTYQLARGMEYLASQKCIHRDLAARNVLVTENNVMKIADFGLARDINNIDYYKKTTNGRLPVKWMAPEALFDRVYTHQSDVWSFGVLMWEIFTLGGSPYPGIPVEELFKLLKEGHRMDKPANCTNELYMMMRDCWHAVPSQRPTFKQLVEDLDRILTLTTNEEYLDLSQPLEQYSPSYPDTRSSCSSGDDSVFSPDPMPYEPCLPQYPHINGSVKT
Procedure: as §1, §2, §3, §4

FGFR1 = molecular target: T3, FGFR1 (Homo sapiens, UniProt P11362); assay: Kinase binding assay (kinase-tagged T7 phage, affinity beads, qPCR readout), FGFR1
T3 construct: made in house; host or cells: E. coli derived from BL21, infected with T7 phage
T3 sequence (P11362 22-822): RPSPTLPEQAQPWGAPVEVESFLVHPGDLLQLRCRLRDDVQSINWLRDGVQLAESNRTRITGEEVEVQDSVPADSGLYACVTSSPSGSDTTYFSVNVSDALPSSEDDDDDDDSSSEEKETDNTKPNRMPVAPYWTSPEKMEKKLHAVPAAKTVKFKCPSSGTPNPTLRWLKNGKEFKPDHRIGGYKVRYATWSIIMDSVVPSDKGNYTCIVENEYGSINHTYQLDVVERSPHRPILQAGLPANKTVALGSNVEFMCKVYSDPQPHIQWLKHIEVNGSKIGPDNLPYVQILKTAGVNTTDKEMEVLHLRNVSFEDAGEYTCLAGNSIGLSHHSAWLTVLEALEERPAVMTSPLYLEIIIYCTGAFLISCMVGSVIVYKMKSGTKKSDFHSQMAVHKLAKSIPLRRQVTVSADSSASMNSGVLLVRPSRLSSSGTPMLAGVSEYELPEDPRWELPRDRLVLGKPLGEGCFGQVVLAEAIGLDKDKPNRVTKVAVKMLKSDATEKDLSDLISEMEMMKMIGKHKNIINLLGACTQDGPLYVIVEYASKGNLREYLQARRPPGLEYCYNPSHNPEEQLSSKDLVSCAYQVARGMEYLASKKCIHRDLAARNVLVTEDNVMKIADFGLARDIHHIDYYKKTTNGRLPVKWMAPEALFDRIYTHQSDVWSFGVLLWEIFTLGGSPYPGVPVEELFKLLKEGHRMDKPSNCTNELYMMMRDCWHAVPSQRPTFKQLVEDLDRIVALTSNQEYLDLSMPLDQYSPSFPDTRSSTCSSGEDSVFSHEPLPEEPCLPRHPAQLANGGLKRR
Procedure: as §1, §2, §3, §4

FGFR3 = molecular target: T4, FGFR3 (Homo sapiens, UniProt P22607); assay: Kinase binding assay (kinase-tagged T7 phage, affinity beads, qPCR readout), FGFR3
T4 construct: made in house; host or cells: E. coli derived from BL21, infected with T7 phage
T4 sequence (P22607 23-806): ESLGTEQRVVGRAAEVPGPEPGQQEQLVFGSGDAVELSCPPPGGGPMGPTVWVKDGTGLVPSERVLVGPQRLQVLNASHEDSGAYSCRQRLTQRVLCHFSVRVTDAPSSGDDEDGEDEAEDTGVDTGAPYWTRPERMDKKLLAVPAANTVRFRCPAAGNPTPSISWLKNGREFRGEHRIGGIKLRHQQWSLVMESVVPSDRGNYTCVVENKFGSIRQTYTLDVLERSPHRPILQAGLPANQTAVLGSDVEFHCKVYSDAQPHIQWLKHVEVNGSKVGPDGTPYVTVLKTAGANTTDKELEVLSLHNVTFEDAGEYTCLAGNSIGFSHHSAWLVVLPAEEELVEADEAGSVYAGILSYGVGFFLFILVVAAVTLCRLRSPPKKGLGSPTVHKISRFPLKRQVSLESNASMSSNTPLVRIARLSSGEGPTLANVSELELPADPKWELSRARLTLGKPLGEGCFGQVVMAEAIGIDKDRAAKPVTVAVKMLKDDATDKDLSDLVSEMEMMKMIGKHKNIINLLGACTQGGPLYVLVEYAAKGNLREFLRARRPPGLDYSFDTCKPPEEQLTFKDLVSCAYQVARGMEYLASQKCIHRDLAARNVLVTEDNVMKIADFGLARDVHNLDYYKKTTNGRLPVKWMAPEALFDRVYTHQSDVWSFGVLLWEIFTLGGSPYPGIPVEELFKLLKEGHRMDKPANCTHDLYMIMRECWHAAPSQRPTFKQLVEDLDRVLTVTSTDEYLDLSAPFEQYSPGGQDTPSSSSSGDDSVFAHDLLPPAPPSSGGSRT
Procedure: as §1, §2, §3, §4

T1 sequence (P22607 23-806 V555M): as the sequence (P22607 23-806) above, with V533M counted along it

| Kd (FGFR3 (V555M)) [nM] | Kd (FGFR2) [nM] | Kd (FGFR1) [nM] | Kd (FGFR3) [nM] | SMILES |
| --- | --- | --- | --- | --- |
| 0.1 to 100 | 0.1 to 100 | 100 to 250 | 0.1 to 100 | C=CC(=O)Nc1ccc2c(c1)c(C)cn2-c1nc(Nc2cc(C)nn2C)ncc1Cl [Example 56, N-[1-[5-chloro-2-[(2,5-dimethylpyrazol-3-yl)amino]-pyrimidin-4-yl]-3-methyl-indol-5-yl]prop-2-enamide] |
| 0.1 to 100 | 0.1 to 100 | 0.1 to 100 | 0.1 to 100 | C=CC(=O)Nc1ccc2c(-c3nc(Nc4ccc(N(C)CCN(C)C)c(OC)c4)ncc3Cl)cn(C)c2c1 [Example 58, N-[3-[5-chloro-2-[4-[2-(dimethylamino)ethyl-methyl-amino]-3-methoxy-anilino]-pyrimidin-4-yl]-1-methyl-indol-6-yl]prop-2-enamide] |
| 0.1 to 100 | 0.1 to 100 | 0.1 to 100 | 0.1 to 100 | C=CC(=O)Nc1ccc2c(-c3nc(Nc4ccc(N5CCN(C)CC5)nc4)ncc3Cl)cn(C)c2c1 [Example 59, N-[3-[5-chloro-2-[[6-(4-methylpiperazin-1-yl)-3-pyridyl]amino]pyrimidin-4-yl]-1-methyl-indol-6-yl]prop-2-enamide] |
| 100 to 250 | > 1000 | > 1000 | > 1000 | C=CC(=O)Nc1cc2c(C)cn(-c3nc(Nc4ccc(N5CCOCC5)cc4)ncc3Cl)c2cc1C [Example 60, N-[1-[5-chloro-2-(4-morpholinoanilino)-pyrimidin-4-yl]-3,6-dimethyl-indol-5-yl]prop-2-enamide] |
| 0.1 to 100 | 0.1 to 100 | 250 to 1000 | 0.1 to 100 | C=CC(=O)Nc1ccc2c(-c3nc(Nc4ccnn4C)ncc3Cl)cn(C)c2c1 [Example 62, N-[3-[5-chloro-2-[(2-methylpyrazol-3-yl)amino]pyrimidin-4-yl]-1-methyl-indol-6-yl]prop-2-enamide] |
| 0.1 to 100 | 0.1 to 100 | 250 to 1000 | 0.1 to 100 | C=CC(=O)Nc1ccc2c(-c3nc(Nc4cc(C)nn4C)ncc3Cl)cn(C)c2c1 [Example 63, N-[3-[5-chloro-2-[(2,5-dimethylpyrazol-3-yl)amino]-pyrimidin-4-yl]-1-methyl-indol-6-yl]prop-2-enamide] |
| 0.1 to 100 | 0.1 to 100 | 0.1 to 100 | 0.1 to 100 | C=CC(=O)Nc1ccc2c(c1)c(C)cn2-c1nc(Nc2ccc(CN3CCN(C)CC3)cc2)ncc1Cl [Example 65, N-[1-[5-chloro-2-[4-[(4-methylpiperazin-1-yl)methyl]-anilino]pyrimidin-4-yl]-3-methyl-indol-5-yl]prop-2-enamide] |
| 0.1 to 100 | 0.1 to 100 | 0.1 to 100 | 0.1 to 100 | C=CC(=O)Nc1ccc2c(c1)c(C)cn2-c1nc(Nc2ccc(CN3CCOCC3)c(C)c2)ncc1Cl [Example 66, N-[1-[5-chloro-2-[3-methyl-4-(morpholinomethyl)anilino]pyrimidin-4-yl]-3-methyl-indol-5-yl]prop-2-enamide] |
| > 1000 | > 1000 | > 1000 | > 1000 | C=CC(=O)Nc1cc(C)c2c(c1)c(C)cn2-c1nc(Nc2cnn(C)c2)ncc1Cl [Example 71, N-[1-[5-chloro-2-[(1-methylpyrazol-4-yl)amino]pyrimidin-4-yl]-3,7-dimethyl-indol-5-yl]prop-2-enamide] |
| 0.1 to 100 | 0.1 to 100 | 0.1 to 100 | 0.1 to 100 | C=CC(=O)Nc1ccc2c(c1)c(C)cn2-c1nc(Nc2cnnn2C)ncc1Cl [Example 72, N-[1-[5-chloro-2-[(3-methyltriazol-4-yl)amino]pyrimidin-4-yl]-3-methyl-indol-5-yl]prop-2-enamide] |
| 0.1 to 100 | 0.1 to 100 | 0.1 to 100 | 0.1 to 100 | C=CC(=O)Nc1ccc2c(c1)c(C)cn2-c1nc(Nc2cccc(N3CCN(C)CC3)c2)ncc1Cl [Example 73, N-[1-[5-chloro-2-[3-(4-methylpiperazin-1-yl)anilino]-pyrimidin-4-yl]-3-methyl-indol-5-yl]prop-2-enamide] |
| 0.1 to 100 | 0.1 to 100 | 0.1 to 100 | 0.1 to 100 | C=CC(=O)Nc1cc(C)c2c(c1)c(C)cn2-c1nc(Nc2ccc(N3CCOCC3)cc2)ncc1Cl [Example 74, N-[1-[5-chloro-2-(4-morpholinoanilino)pyrimidin-4-yl]-3,7-dimethyl-indol-5-yl]prop-2-enamide] |
| 0.1 to 100 | 0.1 to 100 | 0.1 to 100 | 0.1 to 100 | C=CC(=O)Nc1ccc2c(c1)c(C)cn2-c1nc(Nc2ccc(CN3CCOCC3)cc2)ncc1Cl [Example 75, N-[1-[5-chloro-2-[4-(morpholinomethyl)anilino]pyrimidin-4-yl]-3-methyl-indol-5-yl]prop-2-enamide] |
| 0.1 to 100 | 0.1 to 100 | 0.1 to 100 | 0.1 to 100 | C=CC(=O)Nc1ccc2c(c1)c(C)cn2-c1ccnc(Nc2cnn(C)c2)n1 [Example 79, N-[3-methyl-1-[2-[(1-methylpyrazol-4-yl)amino]pyrimidin-4-yl]indol-5-yl]prop-2-enamide] |
| 0.1 to 100 | 0.1 to 100 | 100 to 250 | 0.1 to 100 | C=CC(=O)Nc1ccc2c(c1)c(C)cn2-c1ccnc(Nc2ccnn2C)n1 [Example 82, N-[3-methyl-1-[2-[(2-methylpyrazol-3-yl)amino]pyrimidin-4-yl]indol-5-yl]prop-2-enamide] |
| 0.1 to 100 | 0.1 to 100 | 0.1 to 100 | 0.1 to 100 | C=CC(=O)Nc1cnc2c(c1)c(C)cn2-c1ccnc(Nc2ccnn2C)n1 [Example 83, N-[3-methyl-1-[2-[(2-methylpyrazol-3-yl)amino]pyrimidin-4-yl]pyrrolo[2,3-b]pyridin-5-yl]prop-2-enamide] |
| 0.1 to 100 | 0.1 to 100 | 0.1 to 100 | 0.1 to 100 | C=CC(=O)Nc1cc(C)c2c(c1)c(C)cn2-c1nc(Nc2cnn(C)c2)ncc1Cl [Example 84, N-[1-[5-chloro-2-[(1-methylpyrazol-4-yl)amino]pyrimidin-4-yl]-3,7-dimethyl-indol-5-yl]prop-2-enamide] |
| 0.1 to 100 | 0.1 to 100 | 0.1 to 100 | 0.1 to 100 | C=CC(=O)Nc1ccc2c(c1)c(C)cn2-c1nc(Nc2ccc(CN3CCN(C)CC3)c(F)c2)ncc1Cl [Example 86, N-[1-[5-chloro-2-[3-fluoro-4-[(4-methylpiperazin-1-yl)methyl]-anilino]pyrimidin-4-yl]-3-methyl-indol-5-yl]prop-2-enamide] |
| > 1000 | > 1000 | > 1000 | > 1000 | C=CC(=O)Nc1ccc2c(c1)c(C)nn2-c1ccnc(Nc2ccnn2C)n1 [Example 87, N-[3-methyl-1-[2-[(2-methylpyrazol-3-yl)amino]pyrimidin-4-yl]indazol-5-yl]prop-2-enamide] |
| 0.1 to 100 | 0.1 to 100 | 0.1 to 100 | 0.1 to 100 | C=CC(=O)Nc1ccc2c(c1)c(C)cn2-c1nc(Nc2cccc(N3CCN(CCO)CC3)c2)ncc1Cl [Example 88, N-[1-[5-chloro-2-[3-[4-(2-hydroxyethyl)piperazin-1-yl]anilino]pyrimidin-4-yl]-3-methyl-indol-5-yl]prop-2-enamide] |
| 0.1 to 100 | 0.1 to 100 | 0.1 to 100 | 0.1 to 100 | C=CC(=O)Nc1ccc2c(c1)c(C)cn2-c1nc(Nc2ccc(N3CCOCC3)nc2)ncc1Cl [Example 91, N-[1-[5-chloro-2-[(6-morpholino-3-pyridyl)amino]pyrimidin-4-yl]-3-methyl-indol-5-yl]prop-2-enamide] |
| 100 to 250 | 100 to 250 | 100 to 250 | 0.1 to 100 | C=CC(=O)Nc1ccc2c(-c3ccnc(Nc4ccn(C)n4)n3)cn(C)c2c1 [Example 92, N-[1-methyl-3-[2-[(1-methylpyrazol-3-yl)amino]pyrimidin-4-yl]indol-6-yl]prop-2-enamide] |
| 0.1 to 100 | 0.1 to 100 | 0.1 to 100 | 0.1 to 100 | C=CC(=O)Nc1ccc2c(c1)c(C)cn2-c1nc(Nc2ccn(CC)n2)ncc1C [Example 93, N-[1-[2-[(1-ethylpyrazol-3-yl)amino]-5-methyl-pyrimidin-4-yl]-3-methylindol-5-yl]prop-2-enamide] |
| 100 to 250 | 250 to 1000 | 100 to 250 | 0.1 to 100 | C=CC(=O)Nc1ccc2c(-c3ccnc(Nc4ccn(CC)n4)n3)cn(C)c2c1 [Example 94, N-[3-[2-[(1-ethylpyrazol-3-yl)amino]pyrimidin-4-yl]-1-methyl-indol-6-yl]prop-2-enamide] |
| 0.1 to 100 | 0.1 to 100 | 0.1 to 100 | 0.1 to 100 | C=CC(=O)Nc1ccc2c(-c3ccnc(Nc4cnn(CC)c4)n3)cn(C)c2c1 [Example 95, N-[3-[2-[(1-ethylpyrazol-4-yl)amino]pyrimidin-4-yl]-1-methyl-indol-6-yl]prop-2-enamide] |
